Assay [1] has as its system A549 cells. Briefly: Proton pump blocking test (omeprazole) for lysosomal exocytosis. It counts as cell-based, human. The conditions noted are these: 200 µM for 1 h before test compounds. The procedure:
To assess whether the exocytosis of olivacine and ellipticine from cancer cells is lysosomal, a proton pump blocking test was performed. Omeprazole was added into A549 cells at a concentration of 200 µM for 1 h. The cell culture was then washed twice with PBS, and the cells were treated with tested compounds. The cell culture was assessed using an Evos FL microscope. The lysosomes were stained using LysoTracker™ Deep Red kit (L12492; Invitrogen). Cultured cells were evaluated using an Evos FL microscope, taking photos every 15 min. After treatment with olivacine or olivacine and omeprazole, analysis of mean cell fluorescence was performed from five independent replicates. In addition, 14 pictures were taken from each replicate, and 100 cells were analyzed by photomicrography using the ImageJ platform.

Assay [2] has as its system MCF-7 cells. Briefly: SRB assay (total protein content), MCF-7. It counts as cell-based. The conditions noted are these: Homo sapiens, MCF7, 48 h incubation. The procedure: (§1) The anticancer activity of tested compounds was assessed on five human cell lines selected from the panel of tumor cell lines recommended by the National Cancer Institute: A495 (lung carcinoma), CCRF/CEM (acute lymphoblastic leukemia), LoVo and LoVo/DX (two types of colorectal: non-resistant and resistant to doxorubicin), and MCF-7 (breast adenocarcinoma). In addition, the NHDF cell line (normal human dermal fibroblasts) was used to estimate cytotoxicity to noncancer cells. The A549, CCRF/CEM, LoVo, LoVo/DX, and MCF-7 cells were obtained from ECACC, and NHDF cells from LONZA, Belgium. The A549 and MCF-7 cells were grown in EMEM medium, CCRF/CEM cells in RPMI-1640, LoVo and LoVo/DX cells in DMEM/F-12, and NHDF cells in DMEM without phenol red. The cells were seeded in […] in the biological assay, as recommended by the National Cancer Institute. All culture media were supplemented with L-glutamine, penicillin, streptomycin, and 10% fetal bovine serum (FBS). Cells were incubated at 37 °C and 5% CO2. One of the most popular in vitro tests to evaluate the activity of compounds with potential antitumor activity is the SRB assay. The sulforhodamine B dye is used, which binds to the protein at the appropriate pH. The assay allows for assessing cell mass and, indirectly, their proliferation. The advantage of the assay is that it measures cellular protein content and not the activity of any enzymes. The SRB assay was carried out according to the National Cancer Institute procedure. Cells were incubated in a culture medium for 24 h in 96-well plates. After 24 h, the control plate for each cell line was fixed with TCA to evaluate cell culture before treatment with tested compounds. […] Cell cultures were then fixed by adding 50% TCA at 4 °C for 1 h. After removing the supernatant, the plates were washed with water and dried. […] Growth inhibition was calculated following the NCI guidelines and expressed as the GI50 ratio, i.e., the concentration of the compound in which the amount of protein was reduced by half compared with the control.
For orientation: Sulforhodamine B stains cellular protein and so reports cell mass.

Assay [3] concerns LoVo cells. Briefly: SRB assay (total protein content), LoVo. It counts as cell-based. The conditions noted are these: Homo sapiens, 48 h incubation. The procedure:
as §1

Assay [4] has as its system LoVo/DX cells. Briefly: SRB assay (total protein content), LoVo/DX. It counts as cell-based. Particulars: Homo sapiens, LoVo/DX cells (doxorubicin-resistant), 48 h incubation. The procedure: as §1
The test system of assay [5] is CCRF/CEM cells. Briefly: SRB assay (total protein content), CCRF/CEM. It counts as cell-based. The conditions noted are these: Homo sapiens, 48 h incubation. The procedure:
as §1

The test system of assay [6] is NHDF cells. Briefly: SRB assay (total protein content), NHDF. It counts as cell-based. Particulars: Homo sapiens, NHDF normal cells, 48 h incubation. The procedure: as §1
Assay [7] has as its system A549 cells. Briefly: MTT assay (mitochondrial activity), A549. The class given is cell-based. Particulars: Homo sapiens. The procedure:
(§2) The anticancer activity of tested compounds was assessed on five human cell lines selected from the panel of tumor cell lines recommended by the National Cancer Institute: A495 (lung carcinoma), CCRF/CEM (acute lymphoblastic leukemia), LoVo and LoVo/DX (two types of colorectal: non-resistant and resistant to doxorubicin), and MCF-7 (breast adenocarcinoma). In addition, the NHDF cell line (normal human dermal fibroblasts) was used to estimate cytotoxicity to noncancer cells. The A549, CCRF/CEM, LoVo, LoVo/DX, and MCF-7 cells were obtained from ECACC, and NHDF cells from LONZA, Belgium. The A549 and MCF-7 cells were grown in EMEM medium, CCRF/CEM cells in RPMI-1640, LoVo and LoVo/DX cells in DMEM/F-12, and NHDF cells in DMEM without phenol red. The cells were seeded in […] in the biological assay, as recommended by the National Cancer Institute. All culture media were supplemented with L-glutamine, penicillin, streptomycin, and 10% fetal bovine serum (FBS). Cells were incubated at 37 °C and 5% CO2. An assessment of the mitochondrial cell activity after applying tested compounds was carried out using the test MTT assay, recommended in the ISO 10993-5:2009 standard. As in the SRB assay, the cells were exposed to tested compounds after 24 h of initial incubation in 96-well plates. The MTT solution (1 mg/mL) was added to each well, and cells were incubated for 2 h. Finally, the supernatant was removed, and the formazan crystals were dissolved in isopropanol. After 30 min, absorbance at 570 nm in Victor2 microplate reader (PerkinElmer). Cell viability was determined as the IC50 ratio, i.e., the concentration of the compound in which the viability was reduced by half compared with the control.
A general note: Tetrazolium assays rely on reduction of a dye to a coloured formazan, in cell work by metabolically active cells.

For assay [8], the system named is MCF-7 cells. Briefly: MTT assay (mitochondrial activity), MCF-7. The conditions noted are these: Homo sapiens, MCF7. It counts as cell-based. The procedure:
as §2

Assay [9] has as its system LoVo cells. Briefly: MTT assay (mitochondrial activity), LoVo. It counts as cell-based. Particulars: Homo sapiens. The procedure: as §2
Assay [10] concerns LoVo/DX cells. Briefly: MTT assay (mitochondrial activity), LoVo/DX. It counts as cell-based. Particulars: Homo sapiens, LoVo/DX cells (doxorubicin-resistant). The procedure:
as §2

The subject of assay [11] is CCRF/CEM cells. Briefly: MTT assay (mitochondrial activity), CCRF/CEM. It counts as cell-based. The conditions noted are these: Homo sapiens. The procedure:
as §2

For assay [12], the system named is NHDF cells. Briefly: MTT assay (mitochondrial activity), NHDF. The class given is cell-based. Particulars: Homo sapiens, NHDF normal cells. The procedure:
as §2

For the molecule `COc1ccc2[nH]c([S+]([O-])Cc3ncc(C)c(OC)c3C)nc2c1` (stereo not drawn) [Omeprazole], the “effect on exocytosis of olivacine and ellipticine” value in the assay with A549 cells [1] is on record as “protect against exocytosis”.

Usually GI50 stands for the concentration giving 50% growth inhibition. A higher GI50 goes with lower sensitivity of the cells. As a reminder, the IC50 is the point on the concentration scale where inhibition reaches its midpoint. As for `COc1cccc2c1C(=O)c1c(O)c3c(c(O)c1C2=O)C[C@@](O)(C(=O)CO)C[C@@H]3O[C@H]1C[C@H](N)[C@H](O)[C@H](C)O1` [Doxorubicin], the 50% growth inhibitory concentration (GI50) is 1.44 ± 0.23 µM with MCF-7 cells [2]; 1.62 ± 0.45 µM in the assay with LoVo cells [3]; 14.1 ± 3.42 µM in the assay with LoVo/DX cells [4]; 0.74 ± 0.02 µM in the assay with CCRF/CEM cells [5]; 13.7 ± 5.29 µM in the assay on NHDF cells [6]. Besides, the IC50 with A549 cells [7] came to 13.8 ± 1.03 µM; with MCF-7 cells [8] it was 4.33 ± 0.55 µM; in the assay on LoVo cells [9] it was 10.2 ± 1.27 µM; with LoVo/DX cells [10], 86.4 ± 25.4 µM; in the assay on CCRF/CEM cells [11], 1.03 ± 0.02 µM; in the assay on NHDF cells [12], 18.2 ± 4.46 µM.

These data come from paper PMC9181543, “Lysosomal Exocytosis of Olivacine on the Way to Explain Drug Resistance in Cancer Cells” (International Journal of Molecular Sciences, 2022).
